Drawing on ChEMBL document CHEMBL5053524, “Novel Electrophilic Warhead Targeting a Triple-Negative Breast Cancer Driver in Live Cells Revealed by "Inverse Drug Discovery"” (J Med Chem, 2021), this text covers IC50 for 9 molecules.

For one test, the system named is Bcap37. Kind of test: Antiproliferative activity against human BcaP37 cells assessed as cell viability incubated for 24 hrs by CCk8 assay. The format is functional, cell-based. As to conditions: Bcap37, 24 h.
Test [1] addresses Glutathione S-transferase P (Homo sapiens, UniProt P09211). Description: Inhibition of recombinant GSTP1 (unknown origin) using GSH substrate.
The subject of test [2] is MDA-MB-468. Kind of test: Antiproliferative activity agaisnt human MDA-MB-468 cells assessed as cell viability incubated for 24 hrs by CCK8 assay. The format is functional, cell-based. To be noted: MDA-MB-468, 24 h.
In test [3] the test system is MDA-MB-468. Kind of test: Antiproliferative activity agaisnt human MDA-MB-468 cells assessed as cell viability incubated for 24 hrs in presence of GSTP1 siRNA by CCK8 assay. The format is functional, cell-based. As to conditions: MDA-MB-468, 24 h.
The test system of a further test is MDA-MB-231. Description: Antiproliferative activity agaisnt human MDA-MB-231 cells assessed as cell viability incubated for 24 hrs by CCK8 assay. Type of test: functional, cell-based. As to conditions: MDA-MB-231, 24 h.
The test system of the next test is MCF7. Kind of test: Antiproliferative activity agaisnt human MCF7 cells assessed as cell viability incubated for 24 hrs by CCK8 assay. As to conditions: MCF7, 24 h. Type of test: functional, cell-based.
The next test deals with MDA-MB-453. Description: Antiproliferative activity agaisnt human MDA-MB-453 cells assessed as cell viability incubated for 24 hrs by CCK8 assay. Type of test: functional, cell-based. As to conditions: MDA-MB-453, 24 h.
Test [4] concerns MDA-MB-468. Description: Antiproliferative activity agaisnt human MDA-MB-468 cells assessed as cell viability incubated for 24 hrs in presence of scrambled siRNA by CCK8 assay. Type of test: functional, cell-based. As to conditions: MDA-MB-468, 24 h.

Sequence of Glutathione S-transferase P (P09211 whole entry): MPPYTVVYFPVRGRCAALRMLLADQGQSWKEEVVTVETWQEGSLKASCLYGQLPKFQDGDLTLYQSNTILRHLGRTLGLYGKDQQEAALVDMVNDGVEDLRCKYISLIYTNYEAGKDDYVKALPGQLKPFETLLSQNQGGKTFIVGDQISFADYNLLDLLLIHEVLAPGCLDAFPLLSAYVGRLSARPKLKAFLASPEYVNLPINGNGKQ

On to `C#CCOc1ccc(-c2c(N(CC)CC)c2=O)cc1`, for which the IC50 in the test with Bcap37 was 46.1 µM.
Consider `C#CCOC(=O)CCCCc1cc1=O`, for which the IC50 with Bcap37 worked out at 10.6 µM; in test [1] it was 1.18 µM.
With `O=c1cc1-c1ccc2ccccc2c1`, in test [1], the IC50 turned out to be 0.36 µM.
With `C#CCOc1ccc(-c2c(-c3ccc(OCC#C)cc3)c2=O)cc1`, the IC50 with Bcap37 is 26.1 µM.
Take `O=c1cc1-c1ccc(Oc2ccccc2)cc1`: in test [1], the IC50 came out at 0.73 µM.
As for `C#CCOc1ccc(-c2cc2=O)cc1`, the IC50 in the test on Bcap37 is 45 µM; in test [1] it was 1.64 µM.
In the case of `O=c1cc1-c1ccc(OCc2ccccc2)cc1`, the IC50 came to 3.47 µM in the test on MDA-MB-468 [2]; 5.02 µM in the test on MDA-MB-468 [3]; 5.02 µM in the test with MDA-MB-231; 12.5 µM in the test on MCF7; 11 µM in the test on MDA-MB-453; 3.46 µM in the test with MDA-MB-468 [4]. For the same molecule, the IC50 in test [1] was found to be 0.73 µM.
For the molecule `O=c1cc1-c1ccc(OCc2ccc(-c3ccccc3)cc2)cc1`, in test [1], the IC50 was 3.2 µM.
Regarding `COc1ccc2cc(-c3cc3=O)ccc2c1`, the IC50 was determined as 4.48 µM with MDA-MB-468 [2]; 20.1 µM in the test with MDA-MB-468 [3]; 6.14 µM in the test with MDA-MB-231; 14.7 µM in the test on MCF7; 30 µM in the test on MDA-MB-453; 4.47 µM in the test with MDA-MB-468 [4]. For the same molecule, the IC50 in test [1] was determined as 1.99 µM.
